Experimental data from patent publication US5202348A, “Thiarubrine antifungal agents” (The University of British Columbia, priority 1990, dated 1993).
Values after ≈ are worked out from the molar mass of the structure shown. Where two headings read alike, the source gives them in different places.

Legend:
C. albicans [1] = test: Growth inhibition of C. albicans during 24 hours exposure; format: cell-based, Candida albicans; conditions: Candida albicans, 24 hours exposure
Description: (§1) Doses inhibiting growth in 50% were estimated by plotting concentration o
(§2) a logarithmic scale and percent of growth inhibition for 24 hours exposur
(§3) on a probability scale.

[2] = Growth inhibition of P815 mastocytoma during 24 hours exposure; format: cell-based, Mouse; conditions: mouse, p815 cells
Description: (§4) P815 = Mouse mastocytoma […]
as §2, §3

P815 = test: as above; format: cell-based, Mouse; conditions: Mus musculus, P815, 24 hours exposure
Description: as §4, §2, §3

[3] = Growth inhibition of L1210 during 24 hours exposure; format: cell-based, Mouse; conditions: mouse, l1210 cells; Table 2; read-out: Toxicity Index, LC50 L1210 / C. albicans
Description: (§5) L1210 = Mouse lymphocytic leukemia
as §1, §2, §3

L1210 = test: as above; format: cell-based, Mouse; conditions: Mus musculus, L1210; 24 hours exposure; Table 1; read-out: Concentration causing 50% growth inhibition
Description: as §5, §1, §2, §3

[4] = Growth inhibition of WEHI-3 during 24 hours exposure; format: cell-based, Mouse; conditions: mouse, wehi-3 cells; Table 2; read-out: Toxicity Index, LC50 WEHI-3 / LC50 C. albicans
Description: (§6) WEHl3 = Mouse myelomonocyte
as §1, §2, §3

WEHI-3 = test: as above; format: cell-based, Mouse; conditions: Mus musculus, WEHI-3; 24 hours exposure; Table 1; read-out: Concentration causing 50% growth inhibition
Description: as §6, §1, §2, §3

[5] = Growth inhibition of 3T3 during 24 hours exposure; format: cell-based, Mouse; conditions: mouse, 3t3 cells; Table 2; read-out: Toxicity Index, LC50 3T3 / LC50 C. albicans
Description: (§7) 3T3 = Mouse fibroblasts
as §1, §2, §3

3T3 = test: Growth inhibition of 3T3 during 24 hours exposure; format: cell-based, Mouse; conditions: Mus musculus, NIH3T3; 24 hours exposure; Table 1; read-out: Concentration causing 50% growth inhibition
Description: as §7, §1, §2, §3

E. coli [6] = test: Growth inhibition of E. coli during 24 hours exposure; format: cell-based, Escherichia coli; conditions: Escherichia coli; 24 hours exposure; Table 4; read-out: Minimal concentration causing 50% growth inhibition
Description: as §1, §2, §3

P. aeruginosa [7] = test: Growth inhibition of P. aeruginosa during 24 hours exposure; format: cell-based, Pseudomonas aeruginosa; conditions: Pseudomonas aeruginosa; 24 hours exposure; Table 4; read-out: Minimal concentration causing 50% growth inhibition
Description: as §1, §2, §3

Aspergillus [8] = test: Minimal inhibitory concentration, agar dilution method; format: cell-based; conditions: 21 h
Description: (§8) Results were obtained by agar dilution method. Mueller Hinton agar plates (pH - 7.4) with different doses of ThD were inoculated with 10^4 cfu/spot and incubated 21 hours at 34°. MIC is the lowest concentration with no growth.

Candida [9] = test: as above; format: cell-based; conditions: 21 h
Description: as §8

Enterobacter aerogenes = test: as above; format: cell-based; conditions: Klebsiella aerogenes, ATCC35029, 21 h; No. 6, ATCC 35029
Description: as §8

Enterobacter sp. = test: as above; format: cell-based; conditions: 21 h, No. 26, strain 9E7
Description: as §8

[10] = tested on: Enterococcus (gentamycin res.); test: as above; format: cell-based; conditions: 21 h, read-out: Minimal Inhibitory Concentration
Description: as §8

Serratia marscenes = test: as above; format: cell-based; conditions: 21 h, No. 27, strain 3A3
Description: as §8

Staphylococcus epidermis = test: as above; format: cell-based; conditions: ATCC29972, 21 h, No. 8, ATCC 29972
Description: as §8

Aspergillus fumigatus = test: Sensitivity of Aspergillus fumigatus, agar diffusion method; format: cell-based; conditions: disc diameter 6 mm, read-out: Zone of Growth Inhibition
Description: Results were obtained by agar diffusion method. Disc diameter - 6 mm. -* = no zone over disc diameter.

C. albicans [11] = test: LC50 (24 hrs.), doses required to inhibit growth in 50%, different method; format: cell-based, Candida albicans
Description: Doses Required to Inhibit Growth of C. albicans
in 50% During 24 hrs. (ng/ml)

C. albicans [12] = test: Influence of exposure of ThD for two hrs. to different pH (LC50 on C. albicans); format: cell-based; conditions: Candida albicans, two hrs. in sodium phosphate buffer
Description: (§9) Data on degradation of Thiarubrine D (ThD) expressed as changes of concentration required to inhibit growth of C. albicans in 50% during 24 hrs. exposure (Lc50 24 hrs.).

C. albicans [13] = test: Changes in LC50 on addition of fetal bovine serum to Saboraud dextrose medium; format: cell-based; conditions: Candida albicans
Description: as §9

C. albicans [14] = test: Decomposition of ThD in 95% ethanol in -20° C. (LC50 on C. albicans); format: cell-based; conditions: Candida albicans
Description: as §9

Candida [15] = test: Anti-Candida activity (summary); format: cell-based; conditions: Table 14;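 also: Letter grades where Y means active and y means less active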
Aspergillus [16] = test: Anti-Aspergillus activity (summary); format: cell-based; conditions: Table 14;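 also: Letter grades where Y means active and y means less active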
bacteria = test: Anti-bacterial activity (summary); format: cell-based; conditions: Table 14
C. albicans [17] = test: Growth inhibition of C. albicans during 24 hours exposure; format: cell-based, Candida albicans; conditions: Candida albicans; 24 hours exposure; Table 3; read-out: Minimal concentration causing 100% growth inhibition
E. coli [18] = test: Growth inhibition of E. coli during 24 hours exposure; format: cell-based, Escherichia coli; conditions: Escherichia coli; 24 hours exposure; Table 3; read-out: Minimal concentration causing 100% growth inhibition
P. aeruginosa [19] = test: Growth inhibition of P. aeruginosa during 24 hours exposure; format: cell-based, Pseudomonas aeruginosa; conditions: Pseudomonas aeruginosa, Table 3, read-out: Minimal concentration causing 100% growth inhibition
[20] = Stability / decomposition of thiarubrines; conditions: under light
[21] = Table 1, read-out: Concentration causing 50% growth inhibition
[22] = Table 4, read-out: Minimal concentration causing 50% growth inhibition

CC#CC1=CC=C(C#CC#CC2CO2)SS1 (centres unmarked) [Thiarubrine D]
IC50 (C. albicans [1]; [21]): 0.6 ng/mL (≈ 0.00246 µM) | IC50 (C. albicans [1]; [22]): 0.6 ng/mL (≈ 0.00246 µM) | selectivity ratio at 24 h ([2]; 50% growth inhibition, Table 4, read-out: Ratio of concentration needed to inhibit growth in 50%, P815 vs C. albicans): 200 | selectivity ratio at 24 h ([2]; 100% growth inhibition, Table 3, read-out: Ratio of minimal concentration causing 100% growth inhibition, P815 line vs C. albicans): ~500 | selectivity ratio at 24 h ([2]; Table 2, read-out: Toxicity Index, LC50 P815 / LC50 C. albicans): 200 | IC50 (P815; [21]): 0.12 µg/mL (≈ 0.491 µM) | IC100 (P815; Table 3, read-out: Minimal concentration causing 100% growth inhibition): 1.25 µg/mL | IC50 (P815; [22]): 0.12 µg/mL (≈ 0.491 µM) | selectivity ratio at 24 h [3]: 78 | IC50 (L1210): 0.047 µg/mL (≈ 0.192 µM) | selectivity ratio at 24 h [4]: 83 | IC50 (WEHI-3): 0.05 µg/mL (≈ 0.205 µM) | selectivity ratio at 24 h [5]: 800 | IC50 (3T3): 0.48 µg/mL (≈ 1.96 µM) | IC50 (E. coli [6]): 0.02 µg/mL (≈ 0.0819 µM) | IC50 (P. aeruginosa [7]): 0.21 µg/mL (≈ 0.859 µM) | MIC (Aspergillus [8]; No. 21, strain 05): 0.032 µg/mL (≈ 0.131 µM) | MIC (Aspergillus [8]; No. 34, strain F604): 0.064 µg/mL (≈ 0.262 µM) | MIC (Candida [9]; No. 22, strain 01): 0.016 µg/mL (≈ 0.0655 µM) | MIC (Candida [9]; No. 23, strain 02): 0.016 µg/mL (≈ 0.0655 µM) | MIC (Candida [9]; No. 24, strain 03): 0.064 µg/mL (≈ 0.262 µM) | MIC (Candida [9]; No. 25, strain R4197): 0.016 µg/mL (≈ 0.0655 µM) | MIC (Candida [9]; No. 32, strain F617): 0.008 µg/mL (≈ 0.0327 µM) | MIC (Enterobacter aerogenes): 10 µg/mL (≈ 40.9 µM) | MIC (Enterobacter sp.): 10 µg/mL (≈ 40.9 µM) | MIC [10]: 0.01 µg/mL (≈ 0.0409 µM) | MIC (Serratia marscenes): 10 µg/mL (≈ 40.9 µM) | MIC (Staphylococcus epidermis): 10 µg/mL (≈ 40.9 µM) | zone of inhibition at 0.01 µg/disc (Aspergillus fumigatus; 10 ng/disc): 14 mm | zone of inhibition at 0.1 µg/disc (Aspergillus fumigatus; 100 ng/disc): 23 mm | zone of inhibition at 1 µg/disc (Aspergillus fumigatus; 1,000 ng/disc): 26 mm | zone of inhibition at 10 µg/disc (Aspergillus fumigatus; 10,000 ng/disc): 32 mm | Inhibition of growth of Candida albicans (C. albicans [11]): nanogram/ml range | IC50 (C. albicans [11]; Candida albicans, 24 hrs., Table 7, read-out: LC50 (24 hrs.), dose required to inhibit growth in 50%): 7 ng/mL (≈ 0.0286 µM) | IC50 (C. albicans [12]; pH 5): 0.04 µg/mL (≈ 0.164 µM) | IC50 (C. albicans [12]; pH 6): 0.034 µg/mL (≈ 0.139 µM) | IC50 (C. albicans [12]; pH 7): 0.02 µg/mL (≈ 0.0819 µM) | IC50 (C. albicans [12]; pH 8): 0.052 µg/mL (≈ 0.213 µM) | IC50 (C. albicans [13]; SAB): 0.007 µg/mL (≈ 0.0286 µM) | IC50 (C. albicans [13]; SAB + 5% FBS): 0.014 µg/mL | IC50 (C. albicans [13]; SAB + 10% FBS): 0.016 µg/mL | IC50 (C. albicans [14]; 0 h, 0 days): 0.007 µg/mL (≈ 0.0286 µM) | IC50 (C. albicans [14]; 504 h, 21 days): 0.017 µg/mL (≈ 0.0696 µM) | Anti-Candida (Candida [15]): Y | Anti-Aspergillus (Aspergillus [16]): Y | Anti-bacterial (bacteria): Y | MIC (C. albicans [17]): 2.4 ng/mL (≈ 0.00982 µM) | MIC (E. coli [18]): 0.078 µg/mL (≈ 0.319 µM) | MIC (P. aeruginosa [19]): 0.625 µg/mL (≈ 2.56 µM) | Light sensitivity [20]: light sensitive and breaks down under light to the corresponding thiophene
